{"source": "patent US4959368A", "about": "“Therapeutic agent for neurological diseases” (Mitsui Petrochemical Industries Ltd., priority 1986, dated 1990)", "key": {"mice": {"system": "mice", "assay": "Acute toxicity, mouse", "format": "in vivo", "conditions": "24 hours; for Number of dead animals/number of test animals: Table 7, 1000 mg/kg p.o.; for Presumed LD50: Table 7, p.o., 1440 min", "experimental": "The acute toxicity of the compounds of the invention was examined by the following method.\nMale ddy-strain 5-week old mice and male Wistar-strain 8 week old rats, five per group, were used as experimental animals. Each of the compounds was dissolved in saline and administered perorally, and the toxicity of the compound was assessed 24 hours after the administration."}, "[1]": {"system": "mouse neuroblastoma cell line neuro-2a", "assay": "Activity on neuro-2a, cells with outgrown neurites", "format": "cell-based", "experimental": "In order to examine the effects of the test compounds, the following method was also employed.\nMouse neuro 2a cells in the logarithmic growth period in the Dulbecco's modified Eagle's medium (DMEM) containing 10% FCS was seeded in a 48-well plate so that the number of cells was 1,000 cells/well, and cultured for one day in 0.25 ml of the culture fluid in each well. The culture medium was then replaced by a medium containing each of the test compounds and FCS, and the cells were further cultured for 24 hours. Then, a 4% aqueous glutaraldehyde solution in the same amount as the medium (0.25 ml) was added, and the culture fluid was left to stand at room temperature for 2 hours to fix the cells. After washing with water, a 0.05% aqueous solution of methylene blue was added to stain the cells. Under a microscope, the number of cells containing outgrown neurites (cells having at least one neutrite with a length at least two times as large as the long diameter of the cell) was counted visually, and the proportion of these cells in the entire cells was calculated. The well was observed over 5 or more visual fields (at least 2% of the entire surface area of the well) continuous to the left and right from a mark put at the center of the well, and more than 200 cells was counted. One drug compound was used in 6 different concentrations at most, and three runs were conducted for each concentration."}, "[2]": {"system": "human neuroblastoma cell line GOTO", "assay": "Activity on neuroblastoma cell line GOTO (cell number, number and length of neurites)", "format": "cell-based", "conditions": "for Number of cells (mean ± S.E.): control 5.30 ± 0.23", "experimental": "(§1) The biological activities in vitro of the compounds of formula (I) on cells of the nervous system were tested. The cells tested were human neuroblastoma cell line GOTO [see Sekiguchi, M., Oota, T., Sakakibara, K., Inui, N. & Fujii, G., Japan. J. Exp. Med., 49, 67-83 (1979)], and neuroblastoma cell line NB-1 [see Miyake, S., Shimo, Y., Kitamura, T., Nojyo, Y., Nakamura, T., Imkashuku, S. and Abe, T., The Autonomic Nervous System, 10, 115-120 (1973)], and mouse neuroblastoma cell line neuro-2a (Dainippon Pharmaceutical Co., Ltd.) which have been established as the cells of the nervous system. The above neuve cells were grown in an incubator at 37° C. in the presence of 5% carbon dioxide gas exponentially, and then cultivated for a certain period of time together with the compounds of formula (I).\nThe effect of the compounds of this invention on neuroblastoma cells was examined by the following method.\nA culture medium [composed of 45% of RPMI 1640 medium, 45% modified Eagle's medium (MEM) and 10% of fetal calf serum (FCS) and containing penicillin G sodium (100 units/ml) and streptomycin sulfate (100 microgram/ml)] containing neurobalstoma cell line GOTO in the logarithmic growth period was poured in an amount of 2 ml each into polystyrene dishes (35 mm; made by Corning Co.) so that the cell concentration was 2 to 6×10^4 cells per dish, and the cells were cultured for 1 to 2 days in a carbon dioxide gas incubator containing 5% of carbon dioxide gas in air at 37° C. Then, the culture fluid was removed, and 2 ml of a fresh serum-free culture fluid (consisting of 50% of RPMI medium and 50% of MEM medium and containing penicillin G sodium and streptomycin sulfate in the same amounts as above) was added. At the same time, a presterilized PBS solution (phosphate buffered saline) of each of the test compounds in various concentrations was added to each of the dishes. After culturing for 24 hours, the number of living cells was counted. Furthermore, the culture was photographed, and from the photos, the number and length of neurites per cell were measured. The numer of living cells was counted for 3 to 6 dishes by resistance to staining with erythrosine dye. The number and length of the neurites were measured with regard to 6 photos (more than 200 cells per photo)."}, "[3]": {"system": "mouse neuroblastoma cell line neuro-2a", "assay": "Activity on cell line neuro-2a (simple method)", "format": "cell-based", "experimental": "as §1, with “(I). […]” for “(I).”\nAs a simple method of evaluation, the number of cells have neurites with a length equal to, or larger than, the long diameter of the cell was divided by the total number of cells."}, "[4]": {"conditions": "Table 3 Run No. 6, 0.1 mM, control 4.4 ± 0.9"}, "[5]": {"conditions": "Table 3 Run No. 6, 3 mM, control 4.4 ± 0.9"}}, "data": [{"smiles": "CN1Cc2nc(N3CCNCC3)ncc2C1=O", "note": "[Compound 606]", "values": [{"measurement": "Number of dead animals/number of test animals", "setting": "mice", "result": "0/5"}, {"measurement": "Presumed LD50", "setting": "mice", "result": "> 1000", "unit": "mg/kg p.o."}, {"measurement": "Cells having neurites with a length at least twice the long diameter of cell/total number of cells", "setting": "[1]; [4]", "result": "6.9 ± 1.8", "unit": "%"}, {"measurement": "Cells having neurites with a length at least twice the long diameter of cell/total number of cells", "setting": "[1]; [5]", "result": "11.9 ± 2.1", "unit": "%"}]}, {"smiles": "CCC(=O)N1Cc2nc(N3CCNCC3)ncc2C1=O", "note": "[Compound 678]", "values": [{"measurement": "Number of dead animals/number of test animals", "setting": "mice", "result": "0/5"}, {"measurement": "Cells having neurites with a length at least twice the long diameter of cell/total number of cells", "setting": "[1]; Table 3 Run No. 11, 0.1 mM, control 2.5 ± 0.6", "result": "4.1 ± 2.2", "unit": "%"}, {"measurement": "Cells having neurites with a length at least twice the long diameter of cell/total number of cells", "setting": "[1]; Table 3 Run No. 11, 1 mM, control 2.5 ± 0.6", "result": "16.1 ± 1.6", "unit": "%"}, {"measurement": "Cells having neurites with a length at least twice the long diameter of cell/total number of cells", "setting": "[1]; Table 3 Run No. 11, 3 mM, control 2.5 ± 0.6", "result": "9.1 ± 2.2", "unit": "%"}]}, {"smiles": "O=C1CCCc2nc(N3CCNCC3)ncc2N1", "note": "[Compound 502]", "values": [{"measurement": "Number of dead animals/number of test animals", "setting": "mice", "result": "0/5"}, {"measurement": "Length of neurites (mean ± S.D.)", "setting": "[2]; Table 1, Run No. 7 by footnote, 1 μg/ml, control 42.20 ± 17.75, all *P <0.01", "result": "52.24 ± 23.92", "unit": "μm/cell"}, {"measurement": "Number of neurites/cell (mean ± S.D.)", "setting": "[2]; Table 1, last control group (Run No. 7 by footnote), 1 μg/ml, control 1.77 ± 0.68", "result": "1.99 ± 0.65", "unit": "neurites/cell"}, {"measurement": "Cells having neurites with a length at least twice the long diameter of cell/total number of cells", "setting": "[1]; Table 3 Run No. 8, 0.3 mM, control 3.7 ± 0.4", "result": "5.5 ± 2.0", "unit": "%"}, {"measurement": "Cells having neurites with a length at least twice the long diameter of cell/total number of cells", "setting": "[1]; Table 3 Run No. 8, 1 mM, control 3.7 ± 0.4", "result": "7.8 ± 1.2", "unit": "%"}]}, {"smiles": "Cn1[nH]c2nc(N3CCNCC3)ncc2c1=O", "note": "[Compound 802]", "values": [{"measurement": "Number of neurites/cell (mean ± S.D.)", "setting": "[2]; Table 1, Run No. 7 by footnote, 10 μg/ml, control 1.77 ± 0.68", "result": "2.02 ± 0.71", "unit": "neurites/cell"}, {"measurement": "Length of neurites (mean ± S.D.)", "setting": "[2]; Table 1, Run No. 7 by footnote, 10 μg/ml, control 42.20 ± 17.75, all *P <0.01", "result": "52.16 ± 19.79", "unit": "μm/cell"}, {"measurement": "Average of the proportions", "setting": "[3]; Table 2 neuro-2a Run No. 2, 1 μg/ml, control 7.9", "result": 19.68, "unit": "%"}, {"measurement": "Average of the proportions", "setting": "[3]; Table 2 neuro-2a Run No. 2, 10 μg/ml, control 7.9", "result": 15.51, "unit": "%"}, {"measurement": "Cells having neurites with a length at least twice the long diameter of cell/total number of cells", "setting": "[1]; [4]", "result": "7.5 ± 2.2", "unit": "%"}]}, {"smiles": "c1ccc(CN2CCN(c3ncccn3)CC2)cc1", "note": "[Compound 132]", "values": [{"measurement": "Number of dead animals/number of test animals", "setting": "mice", "result": "0/5"}, {"measurement": "Number of neurites/cell (mean ± S.D.)", "setting": "[2]; Table 1 Run No. 5, 1 μg/ml, control 1.96 ± 0.64", "result": "1.95 ± 0.46", "unit": "neurites/cell"}, {"measurement": "Number of cells (mean ± S.E.)", "setting": "[2]; Table 1 Run No. 5, 1 μg/ml", "result": "5.63 ± 0.68 × 10^4 /dish"}, {"measurement": "Length of neurites (mean ± S.D.)", "setting": "[2]; Table 1 Run No. 5, 1 μg/ml, control 46.41 ± 33.28", "result": "52.61 ± 32.09", "unit": "μm/cell"}, {"measurement": "Number of neurites/cell (mean ± S.D.)", "setting": "[2]; Table 1 Run No. 5, 10 μg/ml, control 1.96 ± 0.64", "result": "2.03 ± 0.63", "unit": "neurites/cell"}, {"measurement": "Number of cells (mean ± S.E.)", "setting": "[2]; Table 1 Run No. 5, 10 μg/ml", "result": "6.26 ± 0.27 × 10^4 /dish"}, {"measurement": "Length of neurites (mean ± S.D.)", "setting": "[2]; Table 1 Run No. 5, 10 μg/ml, control 46.41 ± 33.28", "result": "52.85 ± 30.00", "unit": "μm/cell"}, {"measurement": "Cells having neurites with a length at least twice the long diameter of cell/total number of cells", "setting": "[1]; Table 3 Run No. 1, 0.027 μM, control 2.2 ± 0.8", "result": "4.2 ± 1.0", "unit": "%"}, {"measurement": "Cells having neurites with a length at least twice the long diameter of cell/total number of cells", "setting": "[1]; Table 3 Run No. 1, 0.27 μM, control 2.2 ± 0.8", "result": "4.3 ± 1.2", "unit": "%"}, {"measurement": "Cells having neurites with a length at least twice the long diameter of cell/total number of cells", "setting": "[1]; Table 3 Run No. 1, 27 μM, control 2.2 ± 0.8", "result": "4.3 ± 0.5", "unit": "%"}, {"measurement": "Cells having neurites with a length at least twice the long diameter of cell/total number of cells", "setting": "[1]; Table 3 Run No. 2, 0.1 mM, control 1.9 ± 0.9", "result": "4.4 ± 0.7", "unit": "%"}, {"measurement": "Cells having neurites with a length at least twice the long diameter of cell/total number of cells", "setting": "[1]; Table 3 Run No. 2, 0.3 mM, control 1.9 ± 0.9", "result": "11.2 ± 1.3", "unit": "%"}, {"measurement": "Cells having neurites with a length at least twice the long diameter of cell/total number of cells", "setting": "[1]; Table 3 Run No. 2, 1 mM, control 1.9 ± 0.9", "result": "9.1 ± 3.0", "unit": "%"}]}, {"smiles": "O=C1NCc2nc(N3CCNCC3)ncc21", "note": "[Compound 620]", "values": [{"measurement": "Number of dead animals/number of test animals", "setting": "mice", "result": "0/5"}, {"measurement": "Average of the proportions", "setting": "[3]; Table 2 neuro-2a Run No. 3, 0.01 μg/ml, control 2.0", "result": 13.01, "unit": "%"}, {"measurement": "Average of the proportions", "setting": "[3]; Table 2 neuro-2a Run No. 3, 0.1 μg/ml, control 2.0", "result": 15.46, "unit": "%"}, {"measurement": "Average of the proportions", "setting": "[3]; Table 2 neuro-2a Run No. 3, 1 μg/ml, control 2.0", "result": 9.8, "unit": "%"}, {"measurement": "Cells having neurites with a length at least twice the long diameter of cell/total number of cells", "setting": "[1]; [4]", "result": "7.2 ± 0.3", "unit": "%"}, {"measurement": "Cells having neurites with a length at least twice the long diameter of cell/total number of cells", "setting": "[1]; Table 3 Run No. 6, 1 mM, control 4.4 ± 0.9", "result": "10.5 ± 3.2", "unit": "%"}, {"measurement": "Cells having neurites with a length at least twice the long diameter of cell/total number of cells", "setting": "[1]; [5]", "result": "20.7 ± 2.5", "unit": "%"}, {"measurement": "Cells having neurites with a length at least twice the long diameter of cell/total number of cells", "setting": "[1]; Table 3 Run No. 9, 0.3 mM, control 2.0 ± 1.0", "result": "6.2 ± 1.5", "unit": "%"}, {"measurement": "Cells having neurites with a length at least twice the long diameter of cell/total number of cells", "setting": "[1]; Table 3 Run No. 9, 1 mM, control 2.0 ± 1.0", "result": "11.3 ± 3.3", "unit": "%"}, {"measurement": "Cells having neurites with a length at least twice the long diameter of cell/total number of cells", "setting": "[1]; Table 3 Run No. 9, 3 mM, control 2.0 ± 1.0", "result": "19.6 ± 0.5", "unit": "%"}]}, {"smiles": "CN1Cc2nc(N3CCNCC3)ncc2C1=O", "note": "[Compound 608]", "values": [{"measurement": "Number of dead animals/number of test animals", "setting": "mice", "result": "0/5"}, {"measurement": "Presumed LD50", "setting": "mice", "result": "> 1000", "unit": "mg/kg p.o."}]}]}
